Measurements published in article PMC9574934, “Targeting the Phosphatidylserine-Immune Checkpoint with a Small-Molecule Maytansinoid Conjugate” (Journal of Medicinal Chemistry, 2022).

Legend:
[1] = tested on: PS-coated liposomes (DOPC/ DOPS (3:1,v/v)); assay: Biacore SPR binding assay with PS-containing liposomes; details: for dissociation koff: zinc-coordinated, DOPC/DOPS (3:1) liposomes, 25 °C, DOPC reference
Protocol: Phospholipids, 1,2-dioleoyl-sn-glycero-3-phosphocholine (DOPC), and 1,2-dioleoyl-sn-glycero-3-[phospho-L-serine] (DOPS) were obtained from Avanti Polar Lipids (Alabaster, AL) in chloroform solutions. These stock solutions were combined to the indicated ratios. To a round-bottom flask, a 0.4 mL aliquot of lipid solution at concentration of 10 mg/mL was added and evaporated under a N2 gas stream to furnish a thin lipid film. Rehydration of lipid films was carried out in PBS buffer for at least 1 h at room temperature. Resulting suspensions were extruded through a 100 nm polycarbonate filter using an Avanti MiniExtruder following the manufacturer’s instructions. Zeta potential (ZP) and liposomes’ size distributions were recorded by dynamic light scattering (DLS) and microelectrophoresis using a Zetasizer Nano ZS instrument. Then, using a Biacore T200 biosensor equipped with an L1 sensor chip (GE Healthcare), binding kinetics between the conjugates and liposome were recorded at 25 °C. Preconditioning of new sensor chips was performed with running buffer (5% DMSO in phosphate-buffered saline (PBS) with final pH 7.4) and two consecutive 30 s pulses of 2:3 v/v 50 mM HCl/isopropanol at a flow rate of 30 μL/min. A fresh liposome capture plate was prepared for each binding cycle. In PBS buffer, liposomes were diluted to 0.5–1 mM and captured to saturation (30–150 s) across isolated flow cells at 2–5 μL/min. In a single injection, conjugates were first diluted with running buffer and injected over lipid surfaces. At flow rate of 30 μL/min, association and dissociation phases were examined for 60s. At the end of each binding cycle, the surface was regenerated by injecting 2:3 v/v 50 mM HCl/isopropanol and equilibrated with running buffer before the next injection of the test compound. […]
Figure S3. […] Zinc-coordinated dipicolylamine 24 and modified analog 11 were analyzed across a two-fold concentration series descending from 31.3 μM. The association was monitored for 1 min, and the dissociation time was 1 min. […]

[2] = tested on: MIA PaCa-2 human pancreatic cells; assay: MTS cell viability assay, MIA PaCa-2; assay type: cell-based; details: 72 h incubation, read-out: MIA PaCa2 IC50
Protocol: (§1) The MTS assay was performed to examine cell viability.

[3] = tested on: Detroit 551 normal skin fibroblast; assay: MTS cell viability assay, Detroit 551; assay type: cell-based; details: Homo sapiens, 72 h incubation
Protocol: as §1

[4] = tested on: HCC 1806 human triple-negative breast cancer cell; assay: MTS cell viability assay, HCC1806; assay type: cell-based; details: 72 h incubation
Protocol: as §1

[5] = Plasma incubation and tumor homogenate cleavage of conjugate; assay type: in vitro ADME; details: glutathione transferase inhibitor added to tumor homogenate
Source text: Figure 3 In vivo targeting ability, plasma stability, and in vivo biodistribution of modified zinc dipicolylamine conjugates in subcutaneous HCC1806 tumor xenografts. […] (B) In vivo detection of PS-expression in the HCC1806 tumor xenograft model. Representative IVIS images of new Zn11-794 fluorescence probe in mice.

Row | SMILES | dissociation koff [1] | IC50 [2] | IC50 [3] | IC50 [4] | other results
1 | CCCCCC(=O)Nc1cccc(CN(Cc2cc(CN(Cc3ccccn3)Cc3cccc(NC(=O)CCCCC)n3)cc(OCCCCN)c2)Cc2ccccn2)n1 [Compound 11] | 0.00358 s^–1 |  |  |  | improvement of dissociation koff over compound 24 ([1]; PS-containing liposomes): 3 fold
2 | COc1cc2cc(c1Cl)N(C)C(=O)C[C@H](OC(=O)[C@H](C)N(C)C(=O)CCS)[C@]1(C)O[C@H]1[C@H](C)[C@@H]1C[C@@](O)(NC(=O)O1)[C@H](OC)/C=C/C=C(\C)C2 [Compound 14, DM1] |  | 74 ± 27 nM | > 20000 nM | 8 ± 3 nM | 
3 | COc1cc2cc(c1Cl)N(C)C(=O)C[C@H](OC(=O)[C@H](C)N(C)C(=O)CCC(C)(C)S)[C@]1(C)O[C@H]1[C@H](C)[C@@H]1C[C@@](O)(NC(=O)O1)[C@H](OC)/C=C/C=C(\C)C2 [Compound 16, DM4] |  | 30 ± 3 nM | > 20000 nM | 4 nM | 
4 | NCCCCOc1cc(CN(Cc2ccccn2)Cc2ccccn2)cc(CN(Cc2ccccn2)Cc2ccccn2)c1 [Compound 24, reference compound] | 0.0113 s^–1 |  |  |  | 
5 | C=C(CC)C(=O)c1ccc(OCC(=O)O)c(Cl)c1Cl [ethacrynic acid, reference compound] |  |  |  |  | effect on abundance of intact conjugate 40a in tumor homogenate [5]: significantly rescued
